Reference: patent US20030096956A1, “Process for producing kiss-1 peptide” (priority 1999, published 2003)
Ends that are not written are not given here.

Tested on: intracellular calcium ion concentration
Test: activity of increasing intracellular calcium ion concentration (method of Example 3 of WO 99/33976)
Type: cell-based
Conditions: compared with a standard product isolated from human placenta extract

Substance: human KiSS-1 peptide: Recombinant peptide of SEQ ID NO: 1 with C-terminal amide, cleaved from KiSS-1 peptide-CS23 fusion protein expressed in E. coli (GTSLSPPPESSGSRQQPGLSAPHSRQIPAPQGAVLVQREKDLPNYNWNSFGLRF-NH2)
- activity of increasing intracellular calcium ion concentration: equivalent to that of a standard product isolated from human placenta extract
